Earlier results, collected in paper PMC3526234 (Diabetes Care, 2012).

Tested on: patients with diabetic gastroparesis
Settings: intravenous erythromycin, 10 patients with diabetic gastroparesis

CC[C@H]1OC(=O)[C@H](C)[C@@H](O[C@H]2C[C@@](C)(OC)[C@@H](O)[C@H](C)O2)[C@H](C)[C@@H](O[C@@H]2O[C@H](C)C[C@H](N(C)C)[C@H]2O)[C@](C)(O)C[C@@H](C)C(=O)[C@H](C)[C@@H](O)[C@]1(C)O [erythromycin]
estimated effect relative to placebo on percent retained at 60 min: 75%
